Laboratory results published in patent US9290487B2, “Pharmaceutical composition for treating diabetes” (Ajinomoto Co., Inc., priority 2011, dated 2016).

target: human GYS1 (glycogen synthase) (Homo sapiens (Human), UniProt P13807); assay: Measurement of glycogen synthase activity (coupled pyruvate kinase/lactate dehydrogenase assay, absorbance at 340 nm); type: biochemical; conditions: concentration inducing relative activity of 50% (100% = Ex. 1 of WO/2011/058154 at 10 μM); incubation at 30° C. for 25 minutes (Examples 1 to 10)
Sequence (P13807 whole entry): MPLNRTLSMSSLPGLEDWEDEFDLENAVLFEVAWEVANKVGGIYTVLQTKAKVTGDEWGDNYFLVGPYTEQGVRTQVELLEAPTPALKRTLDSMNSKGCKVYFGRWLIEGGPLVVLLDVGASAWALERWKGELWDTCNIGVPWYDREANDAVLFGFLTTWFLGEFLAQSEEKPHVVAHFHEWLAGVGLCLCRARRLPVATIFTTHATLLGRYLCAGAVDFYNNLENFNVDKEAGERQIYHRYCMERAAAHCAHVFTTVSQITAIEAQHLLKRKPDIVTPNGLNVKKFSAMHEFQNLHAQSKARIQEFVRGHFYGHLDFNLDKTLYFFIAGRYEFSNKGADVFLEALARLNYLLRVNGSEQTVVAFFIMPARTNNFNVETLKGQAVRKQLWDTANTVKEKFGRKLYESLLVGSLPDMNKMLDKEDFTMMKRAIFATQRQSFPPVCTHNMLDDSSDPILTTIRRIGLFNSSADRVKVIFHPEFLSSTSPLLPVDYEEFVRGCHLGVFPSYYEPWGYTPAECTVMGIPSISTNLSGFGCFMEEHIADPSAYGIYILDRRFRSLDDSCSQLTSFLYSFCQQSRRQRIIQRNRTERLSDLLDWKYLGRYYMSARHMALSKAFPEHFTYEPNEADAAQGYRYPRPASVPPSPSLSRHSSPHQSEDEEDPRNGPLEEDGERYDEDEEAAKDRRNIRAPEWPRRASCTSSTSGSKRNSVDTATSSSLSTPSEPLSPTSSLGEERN
Procedure: A human GYS1 expression plasmid (pCDNA3.1(+)-hGYS1) was constructed by the following method. Using a human skeletal muscle cDNA of Human MTC Panel I (Takara Bio Inc., 636742) as a template, a human GYS1 gene was amplified by a PCR method using cloning primers (Forward Primer: ATGCCTTTAAACCGCAC (SEQ ID NO: 1), Reverse Primer: TTAGTTACGCTCCTCGC (SEQ ID NO: 2)). Using the amplified human GYS1 sequence as a template, a restriction enzyme sequence was added by a PCR method using sub-cloning primers (Forward Primer: […] (SEQ ID NO: 3), Reverse Primer: […] (SEQ ID NO: 4)). Then, the human GYS1 gene was introduced between a Xho I site and a Xba I site of pCDNA3.1(+) (Invitrogen Corporation, V790-20).
Glycogen synthase was prepared by the following method according to the published article (THE JOURNAL OF BIOLOGICAL CHEMISTRY Vol. 269, No. 41, 25534-25542, 1994). Human kidney-derived HEK293T cells were seeded in a dish (Thermo Fisher Scientific Inc., 168381) using a 10% FBS-containing DMEM (Nacalai Tesque, Inc., 0845874) medium, and cultured overnight. Then, using Lipofectamine LTX (Invitrogen Corporation, 15338-100), the human GYS1 expression vector was transfected according to the attached manual. After culturing under conditions of 37° C. and 5% CO2 for 2 days, the resultant was dissolved in a lysis buffer (50 mM Tris-HCl (pH 8.0), 10 mM EDTA, 2 mM EGTA, 100 mM NaF, 1 mM PMSF, 1 mM DTT, 1× Complete (Roche Diagnostics K. K., 1873580)), homogenized, and then centrifuged at 16000×g at 4° C. for 15 minutes. To the precipitated fraction, a lysis buffer was added. Re-dissolved fractions were used as glycogen synthase for evaluation.
The glycogen synthase activity was measured by the following method. To a polystyrene 96-well plate, a solution containing 30 mM glycylglycine (pH 7.3), 40 mM KCl, 20 mM MgCl2, 9.2% DMSO containing one of the test compounds at various concentrations, and 10 mM glucose-6-phosphate (Sigma-Aldrich Corporation, G7879) was added by 12 μL/well.
Next, a substrate solution containing 30 mM glycylglycine (pH 7.3), 4.3 mg/mL of glycogen (Sigma-Aldrich Corporation, G8876), 21.6 mM UDP-glucose (Sigma-Aldrich Corporation, U4625), 21.6 mM phosphoenolpyruvic acid (Sigma-Aldrich Corporation, P0564), and 4.05 mM NADH (Sigma-Aldrich Corporation, N8129) was added by 18 μL/well.
Further, an enzyme solution containing 50 mM Tris-HCl (pH 8.0), 27 mM DTT (Nacalai Tesque, Inc., 14128-04), 0.2 mg/mL of bovine serum albumin, 0.17 mg/mL of the glycogen synthase, 1.5 μL of a pyruvate kinase/lactate dehydrogenase solution (Sigma-Aldrich Corporation, P0294) was added by 18 μL/well to prepare a reaction solution. After the reaction solution was incubated (at 30° C. for 25 minutes for Examples 1 to 10, at 37° C. for 20 minutes for Examples 11 to 75), the absorbance at 340 nm was measured using Benchmark Plus (Bio-Rad Laboratories, Inc.).
The activities of the test compounds were calculated by the following method. The change in the absorbance (ΔA340) was calculated by subtracting the absorbance at 340 nm of the reaction solution containing the compound and DMSO from the absorbance at 340 nm of a reaction solution not containing the compound but containing only DMSO. The ΔA340 of the reaction solution containing the compound of Example 1 in WO/2011/058154 at the final concentration of 10 μM was taken as 100% to calculate the relative activity (%) of the test compounds at various concentrations. EC50 representing the concentration of the compound which induces an increase in the relative activity to 50% was calculated using XLfit (idbs).

In order of falling EC50:
1. Cc1cc2cccc(-c3ccc(OCc4cccc(C(=O)N5CCC[C@H]5C(=O)O)c4)cc3)c2o1 [compound of Ex. 8]  820 nM
2. CN(CC(=O)O)C(=O)c1cccc(COc2ccc(-c3cc(F)cc4c3OCC4)cc2)c1 [compound of Ex. 2, N-(3-{[4-(5-fluoro-2,3-dihydro-1-benzofuran-7-yl)phenoxy]methyl}benzoyl)-N-methylglycine]  590 nM
3. O=C(O)[C@@H]1CCCN1C(=O)c1cccc(COc2ccc(-c3ccc(F)c4c3OCC4)cc2)c1 [compound of Ex. 10]  350 nM
4. O=C(O)[C@@H]1CCCN1C(=O)c1cccc(COc2ccc(-c3ccc4occc4c3)cc2)c1 [compound of Ex. 6]  330 nM
5. O=C(O)[C@@H]1CCCN1C(=O)c1cccc(COc2ccc(-c3ccc(F)c4ccoc34)cc2)c1 [compound of Ex. 3, 1-(3-{[4-(4-fluoro-1-benzofuran-7-yl)phenoxy]methyl}benzoyl)-L-proline]  110 nM

same assay, conditions: concentration inducing relative activity of 50% (100% = Ex. 1 of WO/2011/058154 at 10 μM); incubation at 37° C. for 20 minutes (Examples 11 to 75)

In order of rising EC50:
1. [2H]C([2H])([2H])Oc1cc(F)c(F)cc1-c1ccc(OCc2cccc(C(=O)N3CCC[C@H]3C(=O)O)c2)cc1 [compound of Ex. 37, 1-(3-{[(4′,5′-difluoro-2′-d3 methoxybiphenyl-4-yl)oxy]methyl}benzoyl)-L-proline]  10 nM
2. N#CCOc1cc(F)c(F)cc1-c1ccc(OCc2cccc(C(=O)N3CCC[C@H]3C(=O)O)c2)cc1 [compound of Ex. 35, 1-[3-({[2′-(cyanomethoxy)-4′,5′-difluorobiphenyl-4-yl]oxy}methyl)benzoyl]-L-proline]  15 nM
3. C#CCOc1cc(F)c(F)cc1-c1ccc(OCc2cccc(C(=O)N3CCC[C@H]3C(=O)O)c2)cc1 [compound of Ex. 34, 1-[3-({[4′,5′-difluoro-2′-(prop-2-yn-1-yloxy)biphenyl-4-yl]oxy}methyl)benzoyl]-L-proline]  17 nM
4. CSc1cc(F)c(F)cc1-c1ccc(OCc2cccc(C(=O)N3CCC[C@H]3C(=O)O)c2)cc1 [compound of Ex. 38, 1-[3-({[4′,5′-difluoro-2′-(methylthio)biphenyl-4-yl]oxy}methyl)benzoyl]-L-proline]  29 nM
5. O=C(O)[C@@H]1CCCN1C(=O)c1cccc(COc2ccc(-c3cc(F)c(F)c4[nH]ccc34)cc2)c1 [compound of Ex. 33, 1-(3-{[4-(6,7-difluoro-1H-indol-4-yl)phenoxy]methyl}benzoyl)-L-proline]  34 nM
6. O=C(O)[C@@H]1CCCN1C(=O)c1cccc(COc2ccc(-c3cc4ccoc4c(F)c3F)cc2)c1 [compound of Ex. 16, 1-(3-{[4-(6,7-difluoro-1-benzofuran-5-yl)phenoxy]methyl}benzoyl)-L-proline]  35 nM
7. O=C(O)[C@@H]1CCCN1C(=O)c1cccc(COc2ccc(-c3cc(F)c(F)c4ccsc34)cc2)c1 [compound of Ex. 39, 1-(3-{[4-(4,5-difluoro-1-benzothien-7-yl)phenoxy]methyl}benzoyl)-L-proline]  42 nM
8. Cc1coc2c(-c3ccc(OCc4cccc(C(=O)N5CCC[C@H]5C(=O)O)c4)cc3)cc(F)c(F)c12 [compound of Ex. 21, 1-(3-{[4-(4,5-difluoro-3-methyl-1-benzofuran-7-yl)phenoxy]methyl}benzoyl)-L-proline]  54 nM
9. O=C(O)[C@@H]1CCCN1C(=O)c1cccc(COc2ccc(-c3c(F)cc(F)c4ccoc34)cc2)c1 [compound of Ex. 20, 1-(3-{[4-(4,6-difluoro-1-benzofuran-7-yl)phenoxy]methyl}benzoyl)-L-proline]  64 nM
10. O=C(O)[C@@H]1CCCN1C(=O)c1cccc(COc2ccc(-c3cc(F)c4occc4c3)cc2)c1 [compound of Ex. 14, 1-(3-{[4-(7-fluoro-1-benzofuran-5-yl)phenoxy]methyl}benzoyl)-L-proline]  70 nM
11. O=C(O)[C@@H]1CCCN1C(=O)c1cccc(COc2ccc(-c3cc(F)c(F)c4c3C=CCO4)cc2)c1 [compound of Ex. 31, 1-(3-{[4-(7,8-difluoro-2H-chromen-5-yl)phenoxy]methyl}benzoyl)-L-proline]  100 nM
12. Cc1cc2c(-c3ccc(OCc4cccc(C(=O)N5CCC[C@H]5C(=O)O)c4)cc3)cc(F)c(F)c2[nH]1 [compound of Ex. 41, 1-(3-{[4-(6,7-difluoro-2-methyl-1H-indol-4-yl)phenoxy]methyl}benzoyl)-L-proline]  100 nM
13. Cc1cc2c(F)c(F)cc(-c3ccc(OCc4cccc(C(=O)N5CCC[C@H]5C(=O)O)c4)cc3)c2o1 [compound of Ex. 23, 1-(3-{[4-(4,5-difluoro-2-methyl-1-benzofuran-7-yl)phenoxy]methyl}benzoyl)-L-proline]  110 nM
14. C=CCOc1cc(F)c(F)cc1-c1ccc(OCc2cccc(C(=O)N3CCC[C@H]3C(=O)O)c2)cc1 [compound of Ex. 36, 1-[3-({[2′-(allyloxy)-4′,5′-difluorobiphenyl-4-yl]oxy}methyl)benzoyl]-L-proline]  110 nM
15. O=C(O)[C@@H]1CCCN1C(=O)c1cccc(COc2ccc(-c3cc(F)c(F)c4occc34)cc2)c1 [compound of Ex. 30, 1-(3-{[4-(6,7-difluoro-1-benzofuran-4-yl)phenoxy]methyl}benzoyl)-L-proline]  140 nM
16. O=C(O)[C@@H]1CCCN1C(=O)c1cccc(COc2ccc(-c3ccc(F)c4c3C=CCO4)cc2)c1 [compound of Ex. 27, 1-(3-{[4-(8-fluoro-2H-chromen-5-yl)phenoxy]methyl}benzoyl)-L-proline]  210 nM
17. O=C(O)[C@@H]1CCCN1C(=O)c1cccc(COc2ccc(-c3ccc(F)c4[nH]ccc34)cc2)c1 [compound of Ex. 29, 1-(3-{[4-(7-fluoro-1H-indol-4-yl)phenoxy]methyl}benzoyl)-L-proline]  230 nM
18. O=C(O)[C@@H]1CCCN1C(=O)c1cccc(COc2ccc(-c3ccc(F)c4c3OCO4)cc2)c1 [compound of Ex. 13, 1-(3-{[4-(7-fluoro-1,3-benzodioxol-4-yl)phenoxy]methyl}benzoyl)-L-proline]  270 nM
19. O=C(O)[C@@H]1CCCN1C(=O)c1cccc(COc2ccc(-c3cc(F)c4occc4c3F)cc2)c1 [compound of Ex. 17, 1-(3-{[4-(4,7-difluoro-1-benzofuran-5-yl)phenoxy]methyl}benzoyl)-L-proline]  270 nM
20. O=C(O)[C@@H]1CCCN1C(=O)c1cccc(COc2ccc(-c3cc(F)cc4ccoc34)cc2)c1 [compound of Ex. 12, 1-(3-{[4-(5-fluoro-1-benzofuran-7-yl)phenoxy]methyl}benzoyl)-L-proline]  350 nM
21. O=C(O)[C@@H]1CCCN1C(=O)c1cccc(COc2ccc(-c3ccc(F)c4occc34)cc2)c1 [compound of Ex. 25, 1-(3-{[4-(7-fluoro-1-benzofuran-4-yl)phenoxy]methyl}benzoyl)-L-proline]  400 nM
22. O=C(O)[C@@H]1CCCN1C(=O)c1cccc(COc2ccc(-c3cccc4c3CCC4)cc2)c1 [compound of Ex. 24, 1-(3-{[4-(2,3-dihydro-1H-inden-4-yl)phenoxy]methyl}benzoyl)-L-proline]  670 nM
23. O=C(O)[C@@H]1CCCN1C(=O)c1cccc(COc2ccc(-c3cccc4ccsc34)cc2)c1 [compound of Ex. 28, 1-(3-{[4-(1-benzothien-7-yl)phenoxy]methyl}benzoyl)-L-proline]  890 nM
